Measured values from PubChem BioAssay AID248 (DTP/NCI, 2004).
“And” between values parts separate entries of the source, which are not always exact repeats. Equal values may be shown once. Toxic doses and inconclusive results are not listed. Rule as the data show it: active = T/C of 150% or more; inactive = T/C below 125%.

System: L1210 leukemia ip in BDF1 mice, survival T/C
Assay: NCI In Vivo Anticancer Drug Screen. Data for tumor model L1210 Leukemia (intraperitoneal) in B6D2F1 (BDF1) mice
Conditions: endpoint: mean survival time, higher = longer survival
In short: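 Tumor was transplanted into mice, which were then dosed with test compound or vehicle alone. Survival was recorded for each group, and the treated figure was expressed relative to the control figure.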

[1] = dose: 100.0 mg/kg/injection, schedule: Q01DX009 (ip), vehicle: Klucel (hydroxypropylcellulose) (HPC)
[2] = dose: 100.0 mg/kg/injection, schedule: Q04DX003 (ip), vehicle: Klucel (hydroxypropylcellulose) (HPC)
[3] = dose: 200.0 mg/kg/injection, schedule: Q01DX009 (ip), vehicle: Klucel (hydroxypropylcellulose) (HPC)
[4] = dose: 200.0 mg/kg/injection, schedule: Q04DX003 (ip), vehicle: Klucel (hydroxypropylcellulose) (HPC)
[5] = dose: 400.0 mg/kg/injection, schedule: Q04DX003 (ip), vehicle: Klucel (hydroxypropylcellulose) (HPC)
[6] = dose: 100.0 mg/kg/injection, schedule: Q04DX002 (ip), vehicle: saline with Tween-80
[7] = dose: 200.0 mg/kg/injection, schedule: Q04DX002 (ip), vehicle: saline with Tween-80
[8] = dose: 400.0 mg/kg/injection, schedule: Q04DX002 (ip), vehicle: saline with Tween-80
[9] = dose: 100.0 mg/kg/injection, schedule: Q04DX003 (ip), vehicle: saline with Tween-80
[10] = dose: 200.0 mg/kg/injection, schedule: Q04DX003 (ip), vehicle: saline with Tween-80
[11] = dose: 400.0 mg/kg/injection, schedule: Q04DX003 (ip), vehicle: saline with Tween-80
[12] = dose: 50.0 mg/kg/injection, schedule: Q01DX001 (ip), vehicle: saline
[13] = dose: 100.0 mg/kg/injection, schedule: Q01DX001 (ip), vehicle: saline
[14] = dose: 200.0 mg/kg/injection, schedule: Q01DX001 (ip), vehicle: saline
[15] = dose: 400.0 mg/kg/injection, schedule: Q01DX001 (ip), vehicle: saline
[16] = dose: 100.0 mg/kg/injection, schedule: Q01DX009 (ip), vehicle: saline with Tween-80
[17] = dose: 200.0 mg/kg/injection, schedule: Q01DX009 (ip), vehicle: saline with Tween-80
[18] = dose: 400.0 mg/kg/injection, schedule: Q01DX009 (ip), vehicle: saline with Tween-80
[19] = dose: 100.0 mg/kg/injection, schedule: Q01DX001 (ip), vehicle: carboxymethylcellulose (CMC)
[20] = dose: 200.0 mg/kg/injection, schedule: Q01DX001 (ip), vehicle: carboxymethylcellulose (CMC)
[21] = dose: 400.0 mg/kg/injection, schedule: Q01DX001 (ip), vehicle: carboxymethylcellulose (CMC)
[22] = dose: 75.0 mg/kg/injection, schedule: Q01DX001 (ip), vehicle: saline
[23] = dose: 150.0 mg/kg/injection, schedule: Q01DX001 (ip), vehicle: saline
[24] = dose: 50.0 mg/kg/injection, schedule: Q01DX009 (ip), vehicle: Klucel (hydroxypropylcellulose) (HPC)

Measured: T/C

C/C(=C\C(=O)O)CC(=O)O
inactive: dose: 25.0 mg/kg/injection, schedule: Q01DX009 (ip), vehicle: water 88 % of control | dose: 25.0 mg/kg/injection, schedule: Q04DX003 (ip), vehicle: water 95 % of control and 105 % of control | dose: 50.0 mg/kg/injection, schedule: Q04DX003 (ip), vehicle: water 104 % of control and 89 % of control | dose: 100.0 mg/kg/injection, schedule: Q01DX009 (ip), vehicle: water 88 % of control | dose: 100.0 mg/kg/injection, schedule: Q04DX003 (ip), vehicle: water 101 % of control and 102 % of control | dose: 200.0 mg/kg/injection, schedule: Q04DX003 (ip), vehicle: water 93 % of control

COc1cc(C=Nc2cccc(C(F)(F)F)c2)ccc1O
inactive: [1] 95 % of control | [2] 102 % of control | [3] 86 % of control | [4] 98 % of control | dose: 400.0 mg/kg/injection, schedule: Q01DX009 (ip), vehicle: Klucel (hydroxypropylcellulose) (HPC) 101 % of control | [5] 104 % of control

Cc1ccc(S(=O)(=O)N(c2cc([N+](=O)[O-])ccc2Br)S(=O)(=O)c2ccc(C)cc2)cc1
inactive: [6] 88 % of control | [7] 98 % of control | [8] 88 % of control

C/C=C/C1OCC(CC)([N+](=O)[O-])CO1 (stereo unspecified)
inactive: [9] 101 % of control | [10] 96 % of control | [11] 98 % of control

COc1cc(Cl)c(/C=C2\N=C(c3ccccc3)OC2=O)cc1OC
inactive: [12] 94 % of control | [13] 91 % of control | [14] 97 % of control | [15] 94 % of control

C=C(C)COC(N)=O
inactive: [16] 95 % of control | [9] 102 % of control | [17] 96 % of control | [10] 102 % of control | [18] 91 % of control | [11] 103 % of control

Oc1ccc2ccccc2c1Sc1c(O)ccc2ccccc12
inactive: [9] 101 % of control | [10] 101 % of control

O=C(COc1ccccc1)N(O)c1ccc(/C=C/c2ccccc2)cc1
inactive: [19] 93 % of control | [20] 95 % of control | [21] 88 % of control

O=C(Nc1ccc([N+](=O)[O-])cc1)OCC(COc1ccccc1)OC(=O)Nc1ccc([N+](=O)[O-])cc1 (stereo unspecified)
inactive: dose: 100.0 mg/kg/injection, schedule: Q01DX001 (ip), vehicle: other 100 % of control | dose: 200.0 mg/kg/injection, schedule: Q01DX001 (ip), vehicle: other 89 % of control | dose: 400.0 mg/kg/injection, schedule: Q01DX001 (ip), vehicle: other 100 % of control

CN(C)c1ccc(/C=N\NC(=O)CCCC(=O)N/N=C/c2ccc(N(C)C)cc2Cl)c(Cl)c1
inactive: [12] 98 % of control | [13] 98 % of control | [14] 102 % of control | [15] 102 % of control

C[n+]1cccc(C#N)c1
inactive: dose: 37.5 mg/kg/injection, schedule: Q04DX003 (ip), vehicle: saline 100 % of control | [22] 106 % of control | dose: 75.0 mg/kg/injection, schedule: Q04DX003 (ip), vehicle: saline 107 % of control | [23] 106 % of control | dose: 150.0 mg/kg/injection, schedule: Q04DX003 (ip), vehicle: saline 91 % of control

CC/C(=C(\CC)c1ccc(OCCN(CCCl)CCCl)cc1)c1ccc(OCCN(CCCl)CCCl)cc1
inactive: dose: 25.0 mg/kg/injection, schedule: Q04DX002 (ip), vehicle: saline with Tween-80 90 % of control | dose: 50.0 mg/kg/injection, schedule: Q04DX002 (ip), vehicle: saline with Tween-80 94 % of control | [6] 101 % of control

CCNCc1ccc(OC)cc1
inactive: dose: 25.0 mg/kg/injection, schedule: Q01DX009 (ip), vehicle: saline 101 % of control | dose: 50.0 mg/kg/injection, schedule: Q01DX009 (ip), vehicle: saline 93 % of control | dose: 100.0 mg/kg/injection, schedule: Q01DX009 (ip), vehicle: saline 100 % of control | [9] 120 % of control

C=CCNC(=O)NCCSC(=O)SCCCC
inactive: dose: 100.0 mg/kg/injection, schedule: Q01DX001 (ip), vehicle: Klucel (hydroxypropylcellulose) (HPC) 103 % of control | dose: 200.0 mg/kg/injection, schedule: Q01DX001 (ip), vehicle: Klucel (hydroxypropylcellulose) (HPC) 100 % of control | dose: 400.0 mg/kg/injection, schedule: Q01DX001 (ip), vehicle: Klucel (hydroxypropylcellulose) (HPC) 100 % of control

CCC(C)c1cccc2c(C(CC)CC)cccc12 (stereo unspecified)
inactive: [13] 104 % of control | [14] 106 % of control | [15] 112 % of control

O=C(O)c1ccccc1C1C=CCCC1 (stereo unspecified)
inactive: [6] 101 % of control | [7] 101 % of control | [8] 104 % of control

CC/C(=C/c1ccc(OC)c(OC)c1)[N+](=O)[O-]
inactive: dose: 25.0 mg/kg/injection, schedule: Q01DX009 (ip), vehicle: Klucel (hydroxypropylcellulose) (HPC) 98 % of control | [24] 101 % of control | dose: 50.0 mg/kg/injection, schedule: Q04DX003 (ip), vehicle: Klucel (hydroxypropylcellulose) (HPC) 96 % of control | [1] 91 % of control | [2] 104 % of control

O=C(COC1CCCCC1)OC1CCCCC1
inactive: [16] 95 % of control | [9] 98 % of control | [17] 96 % of control | [18] 94 % of control | [11] 86 % of control

CC(=O)NN(c1ccccc1)c1ccccc1
inactive: [24] 98 % of control | [1] 104 % of control | [2] 93 % of control | [3] 96 % of control | [4] 86 % of control | [5] 91 % of control

CNCC(N)=O
inactive: dose: 50.0 mg/kg/injection, schedule: Q01DX001 (ip), vehicle: carboxymethylcellulose (CMC) 108 % of control | [19] 105 % of control | [20] 98 % of control | [21] 95 % of control

N=C(N)c1ccc(OCCCCCOc2ccc(C(=N)N)cc2)cc1
inactive: dose: 12.5 mg/kg/injection, schedule: Q01DX Z (oral), vehicle: saline 95 % of control | dose: 25.0 mg/kg/injection, schedule: Q01DX Z (oral), vehicle: saline 95 % of control | dose: 50.0 mg/kg/injection, schedule: Q01DX Z (oral), vehicle: saline 100 % of control | dose: 100.0 mg/kg/injection, schedule: Q01DX Z (oral), vehicle: saline 100 % of control

CCCCCCCCCCCCCCCC[n+]1ccccc1
inactive: dose: 0.12 mg/kg/injection, schedule: Q01DX Z (ip), vehicle: water 101 % of control | dose: 0.25 mg/kg/injection, schedule: Q01DX Z (ip), vehicle: water 101 % of control | dose: 0.5 mg/kg/injection, schedule: Q01DX Z (ip), vehicle: water 108 % of control | dose: 1.0 mg/kg/injection, schedule: Q01DX Z (ip), vehicle: water 103 % of control

CCCCCSP(=S)(SCCCCC)c1ccccc1
inactive: [6] 99 % of control | [7] 105 % of control | [8] 99 % of control

O=C(NC1CCCCC1)NS(=O)(=O)c1ccc2c(c1)CCC2
inactive: [13] 100 % of control | [14] 102 % of control | [15] 96 % of control

OC1C(Br)C2C3CC4C(C13)C42 (stereo unspecified)
inactive: dose: 50.0 mg/kg/injection, schedule: Q04DX002 (ip), vehicle: Klucel (hydroxypropylcellulose) (HPC) 97 % of control | dose: 100.0 mg/kg/injection, schedule: Q04DX002 (ip), vehicle: Klucel (hydroxypropylcellulose) (HPC) 89 % of control | dose: 200.0 mg/kg/injection, schedule: Q04DX002 (ip), vehicle: Klucel (hydroxypropylcellulose) (HPC) 93 % of control

C=C(C)C1(C)C(=O)NC(=S)NC1=O
inactive: [22] 108 % of control | [23] 100 % of control | dose: 300.0 mg/kg/injection, schedule: Q01DX001 (ip), vehicle: saline 107 % of control
